Here are results for three molecules from US20100216747A1, “PREVENTIVE AGENT OR THERAPEUTIC AGENT FOR DISEASE CAUSED BY ABNORMAL BONE METABOLISM” (TEIJIN PHARMA LIMITED, priority 2007, published 2010).

The test system of assay [1] is osteoclast-like cells formed from mouse bone marrow-derived cells. Briefly: Formation of osteoclast-like cells (TRAP-positive multinuclear cells) from mouse bone marrow-derived cells cultured with 1α,25(OH)2D3. The conditions noted are these: alone or simultaneously, 7 days; for number of osteoclast-like cells formed, taking Comparative Example 1-1 as 100%: Example 1 experiment (FIG. 1): Compound A 10^−7 M; for number of osteoclast-like cells formed, taking Comparative Example 1-1 as 100% / number of osteoclast-like cells formed, taking Comparative Example 2-1 as 100%: 3 wells; for number of osteoclast-like cells formed, taking Comparative Example 2-1 as 100%: Example 2 experiment (FIG. 2): Compound A 10^−6 M; for number of osteoclast-like cells formed, taking Comparative Example 3-1 as 100%: Example 3 experiment (FIG. 3): Compound A 10^−7 M, 4 to 5 wells. Type of assay: cell-based. From the text: Multinuclear osteoclast-like cells were formed from mouse bone marrow-derived cells by collecting bone marrows of the femur and the tibia from a mouse, removing erythrocytes according to the ordinary method, plating the residual components in a 96-well plate at the density of 4×10^5cells/well, culturing the cells overnight, then adding a medium containing 1α,25-dihydroxy vitamin D3 (referred to as 1═,25(OH)2D3 hereinbelow) in order to be at 10^−9M, and culturing the cells in the presence of 1α,25(OH)2D3 for 7 days. An αMEM medium containing 10% fetal calf serum (referred to as 10% FCS-αMEM hereinbelow) was used as a medium. When 1α,25(OH)2D3 was added to the mouse bone marrow-derived cells, each of a solvent alone (Comparative Example 1-1), N-hydroxy-4-{5-[4-(5-isopropyl-2-methyl-1,3-thiazol-4-yl)phenoxy]pentoxy}-benzamidine (described as Compound A in Figure) alone (Comparative Example 1-2), risedronic acid alone (Comparative Example 1-3), and N-hydroxy-4-{5-[4-(5-isopropyl-2-methyl-1,3-thiazol-4-yl)phenoxy]pentoxy}-benzamidine (described as Compound A in Figure) and risedronic acid simultaneously (Example 1) were added to the mouse bone marrow-derived cell culture system, and the effects on formation of osteoclast-like cells were evaluated. The following groups were set for the experiment.
For addition of N-hydroxy-4-{5-[4-(5-isopropyl-2-methyl-1,3-thiazol-4-yl)phenoxy]pentoxy}-benzamidine (Compound A), in both the Comparative Examples and Example, N-hydroxy-4-{5-[4-(5-isopropyl-2-methyl-1,3-thiazol-4-yl)phenoxy]pentoxy}-benzamidine (Compound A) was dissolved in dimethylsulfoxide (DMSO) at a concentration of 10^−4 M, and the resultant solution was added to the medium to make 10^−7 M at a 1000-fold dilution. For addition of risedronic acid, in both the Comparative Examples and Example, sodium risedronate hydrate was dissolved in phosphate buffered saline (PBS) at a concentration of […], and the resultant solution was added to the medium to make 3×10^−7 M at a 1000-fold dilution. On the third day after addition of the test compound(s) of the respective conditions, the medium was replaced with fresh 10% FCS-αMEM containing the test compound(s) of the respective conditions in both the Comparative Examples and Example.
In both the Comparative Examples and Example, on the 7th day after the start of culture, the medium was removed, the cells were fixed with phosphate buffered formalin and stained by tartrate-resistant acid phosphatase (abbreviated as TRAP hereinbelow), an osteoclast marker, using Sigma Acid Phosphatase, Leukocyte (TRAP) kit (Sigma, No. 386A), and the number of TRAP-positive multinuclear cells having 6 or more cell nuclei was counted as osteoclast-like cells under an optical microscope.
The experiment was conducted in a similar manner to that described in Example 1, except that the concentration of N-hydroxy-4-{5-[4-(5-isopropyl-2-methyl-1,3-thiazol-4-yl)phenoxy]pentoxy}-benzamidine in the medium was set at 10^−6M, and the following groups were set.
The experiment was conducted in a similar manner to that described in Example 1, except that clodronic acid at a concentration of 10^−5 M was allowed to act on the cells in place of risedronic acid at a concentration of 3×10^−7 M in the Comparative Examples and Example, and the following groups were set.

The test system is the same in assay [2]. Briefly: Bone resorption activity of osteoclast-like cells on ivory section (type I collagen cross-linked C-telopeptide in medium, ELISA). The assay is classed as cell-based. The conditions noted are these: Example 4 experiment: Compound A 10^−7 M, risedronic acid 10^−8 M, alone or simultaneously, 9 days on ivory section, vs Comparative Example 4-1, 3 to 4 wells. From the text:
Multinuclear osteoclast-like cells were formed from mouse bone marrow-derived cells by collecting bone marrows of the femur and the tibia from a mouse, removing erythrocytes according to the ordinary method, plating the residual components in a 96-well plate containing an ivory section at the density of 4×10^5 cells/well, culturing the cells overnight, then adding a medium containing 1α,25-dihydroxy vitamin D3 (referred to as 1α,25(OH)2D3 hereinbelow) in order to be at 10^−9 M, and culturing the cells in the presence of 1α,25(OH)2D3 for 9 days. An αMEM medium containing 10% fetal calf serum (referred to as 10% FCS-αMEM hereinbelow) was used as a medium. When 1α,25(OH)2D3 was added to the mouse bone marrow-derived cells, each of a solvent alone (Comparative Example 4-1), N-hydroxy-4-{5-[4-(5-isopropyl-2-methyl-1,3-thiazol-4-yl)phenoxy]pentoxy}-benzamidine (described as Compound A in Table 4) alone (Comparative Example 4-2), risedronic acid alone (Comparative Example 4-3), and N-hydroxy-4-{5-[4-(5-isopropyl-2-methyl-1,3-thiazol-4-yl)phenoxy]pentoxy}-benzamidine (described as Compound A in Table 4) and risedronic acid (Example 4) were simultaneously added to the mouse bone marrow-derived cell culture system, and the effects on formation of osteoclast-like cells were evaluated. The following groups were set for the experiment.
For addition of N-hydroxy-4-{5-[4-(5-isopropyl-2-methyl-1,3-thiazol-4-yl)phenoxy]pentoxy}-benzamidine (Compound A), in both the Comparative Examples and Example, N-hydroxy-4-{5-[4-(5-isopropyl-2-methyl-1,3-thiazol-4-yl)phenoxy]pentoxy}-benzamidine (Compound A) was dissolved in dimethylsulfoxide (DMSO) at a concentration of 10^−4 M, and the resultant solution was added to the medium to make 10^−7 M at a 1000-fold dilution. […]
Both in Comparative Examples and Example, the culture medium was collected 9 days after the start of culture, and the quantity of type I collagen cross-linked C-telopeptide in the medium was measured. […]

Where [3] appears, read: Mus musculus, Osteoclast-like, 168 h, Example 1 experiment: Compound A 10^−7 M, risedronic acid 3×10^−7 M, vs Comparative Example 1-1, read-out: Osteoclast-like cell formation inhibition rate (%).
Where [4] appears, read: Mus musculus, Osteoclast-like, 168 h, Example 2 experiment: Compound A 10^−6 M, risedronic acid 3×10^−7 M, vs Comparative Example 2-1, read-out: Osteoclast-like cell formation inhibition rate (%).
Where [5] appears, read: Mus musculus, Osteoclast-like, 216 h, read-out: Bone resorption inhibitory rate (%).
The mark [6] stands for this setting: Mus musculus, Osteoclast-like, 168 h, Example 3 experiment: Compound A 10^−7 M, clodronic acid 10^−5 M, vs Comparative Example 3-1, read-out: Osteoclast-like cell formation inhibition rate (%).

Where two headings read alike, the source gives them in different places.

For `O=P(O)(O)C(O)(Cc1cccnc1)P(=O)(O)O` [risedronic acid], in assay [1] (risedronic acid 3×10^−7 M), the “number of osteoclast-like cells formed, taking Comparative Example 1-1 as 100%” value was 88.1% and the “number of osteoclast-like cells formed, taking Comparative Example 2-1 as 100%” value is 88.1%. For the same molecule, the inhibition at 0.3 µM in assay [1] (setting [3]) stood at 11.9%. In addition, in assay [1] (setting [4]), the inhibition at 0.3 µM came to 11.9%. The “Bone resorption inhibitory rate (%)” value in assay [2] (listed as Comparative Example 4-3) was found to be 18.3%. The inhibition at 0.01 µM in assay [2] (setting [5]) was determined as 18.3%.
On to `O=P(O)(O)C(Cl)(Cl)P(=O)(O)O` [clodronic acid], for which the “number of osteoclast-like cells formed, taking Comparative Example 3-1 as 100%” value in assay [1] (clodronic acid 10^−5 M) came out at 93.9%. In addition, the inhibition at 10 µM in assay [1] (setting [6]) stood at 6.1%.
For the molecule `Cc1nc(-c2ccc(OCCCCCOc3ccc(/C(N)=N/O)cc3)cc2)c(C(C)C)s1` [Compound A, N-hydroxy-4-{5-[4-(5-isopropyl-2-methyl-1,3-thiazol-4-yl)phenoxy]pentoxy}-benzamidine], the “number of osteoclast-like cells formed, taking Comparative Example 1-1 as 100%” value in assay [1] (risedronic acid 3×10^−7 M) was 81.3%. Further, the “number of osteoclast-like cells formed, taking Comparative Example 2-1 as 100%” value in assay [1] (risedronic acid 3×10^−7 M) is reported as 50%. The “number of osteoclast-like cells formed, taking Comparative Example 3-1 as 100%” value in assay [1] (clodronic acid 10^−5 M) was found to be 95.2%. Moreover, the results for the inhibition at 0.1 µM in assay [1] (setting [3]), in assay [1] (setting [6]) and in assay [2] (setting [5]) were 18.7%, 4.8% and 13.9%, respectively. Further, the inhibition at 1 µM in assay [1] (setting [4]) worked out at 50%.
